Test results taken from patent US6645918B1, “N-([1,2,4]triazoloazinyl)thiophenesulfonamide compounds and their use as herbicides” (Dow AgroSciences LLC, priority 2000, dated 2003).

What was measured:
Format in all cases: in vivo
[1] = test system: pigweed (Amaranthus retroflexus); assay: Preemergence herbicidal activity, pigweed; conditions: soil spray, visual after 3 weeks, 0 no injury, 100 complete kill or no germination
Method: (§1) The soil matrix was contained in plastic pots with a surface area of 161 square centimeters. When required to ensure good germination and healthy plants, a fungicide treatment and/or other chemical or physical treatment was applied. A weighed amount, determined by the highest rate to be tested, of each test compound was placed in a 20 mL glass vial and was dissolved in 8 mL of a 97:3 v/v (volume/volume) mixture of acetone and dimethyl sulfoxide to obtain concentrated stock solutions. […] The stock solutions obtained were diluted with a 99.9:0.1 mixture of water and Tween® 155 surfactant (ethoxylated sorbitan fatty acid ester) to obtain application solutions of known concentration. The solutions containing the highest concentration to be tested were prepared by diluting 4 mL aliquots of the stock solution with 8.5 mL of the mixture and lower concentrations were prepared by dilution of appropriate smaller portions of the stock solution. A 2.5 mL aliquot of each solution of known concentration was sprayed evenly onto the soil of each seeded pot using a Cornwall 5.0 mL glass syringe fitted with a TeeJet TN-3 hollow cone nozzle to obtain thorough coverage of the soil in each pot. Control pots were sprayed in the same manner with the aqueous mixture. A highest application rate of 4.48 kg/ha is achieved when 50 mg of test compound is employed. The treated pots and control pots were placed in a greenhouse with an approximately 15 hr photoperiod which was maintained at about 23-29° C. during the day and 22-28° C. during the night. Nutrients and water were added on a regular basis and supplemental lighting was provided with overhead metal halide 1000 Watt lamps as necessary. The water was added by top-irrigation. After 3 weeks the condition of the test plants that germinated and grew as compared with that of the untreated plants that germinated and grew was determined visually and scored on a scale of 0 to 100 percent where 0 corresponds to no injury and 100 corresponds to complete kill or no germination.

[2] = test system: blackgrass (Alopecurus myosuroides); assay: Preemergence herbicidal activity, blackgrass; conditions: soil spray, visual after 3 weeks, 0 no injury, 100 complete kill or no germination
Method: as §1

[3] = test system: Rox orange sorghum (Sorghum bicolor); assay: Postemergence herbicidal activity, Rox orange sorghum; conditions: foliar spray, visual after 2 weeks, 0 no injury, 100 complete kill
Method: (§2) Seeds of the desired test plant species were planted in Grace-Sierra MetroMix® 306 planting mixture, which typically has a pH of 6.0 to 6.8 and an organic matter content of about 30 percent, in plastic pots with a surface area of 64 square centimeters. When required to ensure good germination and healthy plants, a fungicide treatment and/or other chemical or physical treatment was applied. The plants were grown for 7-21 days in a greenhouse with an approximately 15 hr photoperiod which was maintained at about 23-29° C. during the day and 22-28° C. during the night. Nutrients and water were added on a regular basis and supplemental lighting was provided with overhead metal halide 1000 Watt lamps as necessary. The plants were employed for testing when they reached the first or second true leaf stage. A weighed amount of each test compound, determined by the highest rate to be tested, was placed in a 20 mL glass vial and was dissolved in 4 mL of a 97:3 v/v (volume/volume) mixture of acetone and dimethyl sulfoxide to obtain concentrated stock solutions. […] The concentrated stock solutions obtained were diluted with an aqueous mixture containing acetone, water, iso-propyl alcohol, dimethyl sulfoxide, Atplus 411F crop oil concentrate, and Triton X-155 surfactant (methylenebisdiamyl phenoxy polyethoxy ethanol) in a 48.5:39:10:1.5:1.0:0.02 v/v ratio to obtain spray solutions of known concentration. The solutions containing the highest concentration to be tested were prepared by diluting 2 mL aliquots of the stock solution with 13 mL of the mixture and lower concentrations were prepared by dilution of appropriate smaller portions of the stock solution. Approximately 1.5 mL aliquots of each solution of known concentration were sprayed evenly onto each of the test plant pots using a DeVilbiss atomizer driven by compressed air pressure of 2 to 4 psi (140 to 280 kilopascals) to obtain thorough coverage of each plant. Control plants were sprayed in the same manner with the aqueous mixture. In this test an application rate of 1 ppm results in the application of approximately 1 g/ha. The treated plants and control plants were placed in a greenhouse as described above and watered by sub-irrigation to prevent wash-off of the test compounds. After 2 weeks the condition of the test plants as compared with that of the untreated plants was determined visually and scored on a scale of 0 to 100 percent where 0 corresponds to no injury and 100 corresponds to complete kill.

[4] = test system: barnyardgrass (Echinochloa crus-galli); assay: Preemergence herbicidal activity, barnyardgrass; conditions: soil spray, visual after 3 weeks, 0 no injury, 100 complete kill or no germination
Method: as §1

[5] = test system: wild buckwheat (Polygonum convolvulus); assay: Postemergence herbicidal activity, wild buckwheat; conditions: foliar spray, visual after 2 weeks, 0 no injury, 100 complete kill
Method: as §2

[6] = test system: chickweed (Stellaria media); assay: Postemergence herbicidal activity, chickweed; conditions: foliar spray, visual after 2 weeks, 0 no injury, 100 complete kill
Method: as §2

[7] = test system: morningglory (Ipomoea hederacea); assay: Postemergence herbicidal activity, morningglory; conditions: foliar spray, visual after 2 weeks, 0 no injury, 100 complete kill
Method: as §2

[8] = test system: wild poinsettia (Euphorbia heterophylla); assay: Preemergence herbicidal activity, wild poinsettia; conditions: soil spray, visual after 3 weeks, 0 no injury, 100 complete kill or no germination
Method: as §1

[9] = test system: velvetleaf (Abutilion theophrasti); assay: Postemergence herbicidal activity, velvetleaf; conditions: foliar spray, visual after 2 weeks, 0 no injury, 100 complete kill
Method: as §2

[10] = test system: pigweed (Amaranthus retroflexus); assay: Postemergence herbicidal activity, pigweed; conditions: foliar spray, visual after 2 weeks, 0 no injury, 100 complete kill
Method: as §2

[11] = test system: crabgrass (Digitaria sanguinalis); assay: Preemergence herbicidal activity, crabgrass; conditions: soil spray, visual after 3 weeks, 0 no injury, 100 complete kill or no germination
Method: as §1

[12] = test system: lambsquarters (Chenopodium album); assay: Preemergence herbicidal activity, lambsquarters; conditions: soil spray, visual after 3 weeks, 0 no injury, 100 complete kill or no germination
Method: as §1

[13] = test system: lambsquarters (Chenopodium album); assay: Postemergence herbicidal activity, lambsquarters; conditions: foliar spray, visual after 2 weeks, 0 no injury, 100 complete kill
Method: as §2

[14] = test system: cocklebur (Xanthium strumarium); assay: Postemergence herbicidal activity, cocklebur; conditions: foliar spray, visual after 2 weeks, 0 no injury, 100 complete kill
Method: as §2

[15] = test system: wild oats (Avena fatua); assay: Preemergence herbicidal activity, wild oats; conditions: soil spray, visual after 3 weeks, 0 no injury, 100 complete kill or no germination
Method: as §1

[16] = test system: velvetleaf (Abutilion theophrasti); assay: Preemergence herbicidal activity, velvetleaf; conditions: soil spray, visual after 3 weeks, 0 no injury, 100 complete kill or no germination
Method: as §1

[17] = test system: Rox orange sorghum (Sorghum bicolor); assay: Preemergence herbicidal activity, Rox orange sorghum; conditions: soil spray, visual after 3 weeks, 0 no injury, 100 complete kill or no germination
Method: as §1

[18] = test system: wild oats (Avena fatua); assay: Postemergence herbicidal activity, wild oats; conditions: foliar spray, visual after 2 weeks, 0 no injury, 100 complete kill
Method: as §2

[19] = test system: blackgrass (Alopecurus myosuroides); assay: Postemergence herbicidal activity, blackgrass; conditions: foliar spray, visual after 2 weeks, 0 no injury, 100 complete kill
Method: as §2

[20] = test system: cocklebur (Xanthium strumarium); assay: Preemergence herbicidal activity, cocklebur; conditions: soil spray, visual after 3 weeks, 0 no injury, 100 complete kill or no germination
Method: as §1

[21] = test system: giant foxtail (Setaria faberi); assay: Preemergence herbicidal activity, giant foxtail; conditions: soil spray, visual after 3 weeks, 0 no injury, 100 complete kill or no germination
Method: as §1

[22] = test system: morningglory (Ipomoea hederacea); assay: Preemergence herbicidal activity, morningglory; conditions: soil spray, visual after 3 weeks, 0 no injury, 100 complete kill or no germination
Method: as §1

[23] = test system: giant foxtail (Setaria faberi); assay: Postemergence herbicidal activity, giant foxtail; conditions: foliar spray, visual after 2 weeks, 0 no injury, 100 complete kill
Method: as §2

[24] = test system: viola (Viola tricolor); assay: Postemergence herbicidal activity, viola; conditions: foliar spray, visual after 2 weeks, 0 no injury, 100 complete kill
Method: as §2

## COc1cnc(OC)n2nc(NS(=O)(=O)c3ccsc3CC(=O)O)nc12 [Compound 6, N-(5,8-dimethoxy[1,2,4]triazolo[1,5-c]pyrimidin-2-yl)-2-carboxymethylthiophene-3-sulfonamide]
[1]; 35 g/Ha
  AMARE preemergence injury score 0-100: 100%
[2]; 35 g/Ha
  ALOMY preemergence injury score 0-100: 75%
[3]; 7.8 ppm
  SORBI postemergence injury score 0-100: 80%
[4]; 35 g/Ha
  ECHCG preemergence injury score 0-100: 80%
[5]; 7.8 ppm
  POLCO postemergence injury score 0-100: 85%
[6]; 7.8 ppm
  STEME postemergence injury score 0-100: 80%
[7]; 7.8 ppm
  IPOHE postemergence injury score 0-100: 85%
[8]; 35 g/Ha
  EPHHL preemergence injury score 0-100: 70%
[9]; 7.8 ppm
  ABUTH postemergence injury score 0-100: 90%
[10]; 7.8 ppm
  AMARE postemergence injury score 0-100: 100%
[11]; 35 g/Ha
  DIGSA preemergence injury score 0-100: 100%
[12]; 35 g/Ha
  CHEAL preemergence injury score 0-100: 99%
[13]; 7.8 ppm
  CHEAL postemergence injury score 0-100: 80%
[14]; 7.8 ppm
  XANST postemergence injury score 0-100: 95%
[15]; 35 g/Ha
  AVEFA preemergence injury score 0-100: 80%
[16]; 35 g/Ha
  ABUTH preemergence injury score 0-100: 80%
[17]; 35 g/Ha
  SORBI preemergence injury score 0-100: 100%
[18]; 7.8 ppm
  AVEFA postemergence injury score 0-100: 70%
[19]; 7.8 ppm
  ALOMY postemergence injury score 0-100: 80%
[20]; 35 g/Ha
  XANST preemergence injury score 0-100: 70%
[21]; 35 g/Ha
  SETFA preemergence injury score 0-100: 100%
[22]; 35 g/Ha
  IPOHE preemergence injury score 0-100: 80%
[23]; 7.8 ppm
  SETFA postemergence injury score 0-100: 98%
[24]; 7.8 ppm
  VIOTR postemergence injury score 0-100: 85%

## CCOc1cscc1S(=O)(=O)Nc1nc2nc(OC)cc(OC)n2n1 [Compound 12]
[1]; 8.8 g/Ha
  AMARE preemergence injury score 0-100: 100%
[2]; 8.8 g/Ha
  ALOMY preemergence injury score 0-100: 100%
[3]; 15.6 ppm
  SORBI postemergence injury score 0-100: 95%
[4]; 8.8 g/Ha
  ECHCG preemergence injury score 0-100: 100%
[5]; 15.6 ppm
  POLCO postemergence injury score 0-100: 85%
[6]; 15.6 ppm
  STEME postemergence injury score 0-100: 95%
[7]; 15.6 ppm
  IPOHE postemergence injury score 0-100: 95%
[8]; 8.8 g/Ha
  EPHHL preemergence injury score 0-100: 95%
[9]; 15.6 ppm
  ABUTH postemergence injury score 0-100: 95%
[10]; 15.6 ppm
  AMARE postemergence injury score 0-100: 95%
[11]; 8.8 g/Ha
  DIGSA preemergence injury score 0-100: 100%
[12]; 8.8 g/Ha
  CHEAL preemergence injury score 0-100: 100%
[13]; 15.6 ppm
  CHEAL postemergence injury score 0-100: 90%
[14]; 15.6 ppm
  XANST postemergence injury score 0-100: 90%
[15]; 8.8 g/Ha
  AVEFA preemergence injury score 0-100: 100%
[16]; 8.8 g/Ha
  ABUTH preemergence injury score 0-100: 90%
[17]; 8.8 g/Ha
  SORBI preemergence injury score 0-100: 100%
[18]; 15.6 ppm
  AVEFA postemergence injury score 0-100: 85%
[19]; 15.6 ppm
  ALOMY postemergence injury score 0-100: 60%
[20]; 8.8 g/Ha
  XANST preemergence injury score 0-100: 90%
[21]; 8.8 g/Ha
  SETFA preemergence injury score 0-100: 100%
[22]; 8.8 g/Ha
  IPOHE preemergence injury score 0-100: 80%
[23]; 15.6 ppm
  SETFA postemergence injury score 0-100: 95%
[24]; 15.6 ppm
  VIOTR postemergence injury score 0-100: 80%

## COc1csc(Cl)c1S(=O)(=O)Nc1nc2c(OC)cnc(OC)n2n1 [Compound 18]
[1]; 4.4 g/Ha
  AMARE preemergence injury score 0-100: 95%
[2]; 4.4 g/Ha
  ALOMY preemergence injury score 0-100: 100%
[3]; 15.6 ppm
  SORBI postemergence injury score 0-100: 100%
[4]; 4.4 g/Ha
  ECHCG preemergence injury score 0-100: 100%
[5]; 15.6 ppm
  POLCO postemergence injury score 0-100: 95%
[6]; 15.6 ppm
  STEME postemergence injury score 0-100: 90%
[7]; 15.6 ppm
  IPOHE postemergence injury score 0-100: 75%
[8]; 4.4 g/Ha
  EPHHL preemergence injury score 0-100: 90%
[9]; 15.6 ppm
  ABUTH postemergence injury score 0-100: 85%
[10]; 15.6 ppm
  AMARE postemergence injury score 0-100: 100%
[11]; 4.4 g/Ha
  DIGSA preemergence injury score 0-100: 98%
[12]; 4.4 g/Ha
  CHEAL preemergence injury score 0-100: 100%
[13]; 15.6 ppm
  CHEAL postemergence injury score 0-100: 90%
[14]; 15.6 ppm
  XANST postemergence injury score 0-100: 100%
[15]; 4.4 g/Ha
  AVEFA preemergence injury score 0-100: 80%
[16]; 4.4 g/Ha
  ABUTH preemergence injury score 0-100: 90%
[17]; 4.4 g/Ha
  SORBI preemergence injury score 0-100: 100%
[18]; 15.6 ppm
  AVEFA postemergence injury score 0-100: 95%
[19]; 15.6 ppm
  ALOMY postemergence injury score 0-100: 70%
[20]; 4.4 g/Ha
  XANST preemergence injury score 0-100: 90%
[21]; 4.4 g/Ha
  SETFA preemergence injury score 0-100: 100%
[22]; 4.4 g/Ha
  IPOHE preemergence injury score 0-100: 80%
[23]; 15.6 ppm
  SETFA postemergence injury score 0-100: 90%
[24]; 15.6 ppm
  VIOTR postemergence injury score 0-100: 100%
